Values joined by “and” are separate entries in the source; they are usually repeats but may differ in a detail not shown here. Identical values can stand only once. Counter-ions that a name gives are not always drawn. Marks after values point to notes of the source that are not given here.
Columns and labels:
[1] = given orally; dosages of up to 1200 µg per day; Human Reproduction, Vol. 16, No. 8, 2001; cited from earlier work
[2] = test system: rat model of post-operative pain; experiment: Rat model of post-operative pain (plantar incision), tactile allodynia by electronic von Frey; assay type: in vivo, Wistar rats; conditions: for Tactile Pressure (g) Post-treatment 15min. / Tactile Pressure (g) Post-treatment 30min. / Tactile Pressure (g) Post-treatment 60min. / Tactile Pressure (g) Post-treatment 120 min.: 24 hours after surgery, single readings at 4 points per rat; for Tactile Pressure (g) Post-treatment 15min. Ave. / Tactile Pressure (g) Post-treatment 30min. Ave. / Tactile Pressure (g) Post-treatment 60min. Ave. / Tactile Pressure (g) Post-treatment 120 min. Ave.: average of 4 points; for Tactile Pressure (g) Post-treatment 15min. Mean / Tactile Pressure (g) Post-treatment 30min. Mean / Tactile Pressure (g) Post-treatment 60min. Mean / Tactile Pressure (g) Post-treatment 120 min. Mean: group mean of 5 rats; for Δ Treatment 15min. / Δ Treatment 30min. / Δ Treatment 60min. / Δ Treatment 120 min.: (Post-Treatment) - (Pre-Treatment)
Experimental: Lofexidine at 0.00032 and 0.0032 mg/rat injected intrathecally (ITH) was evaluated for possible analgesic activity in a rat model of post-operative pain which was induced with an incision made on the plantar surface of the hind paw. To measure tactile allodynia, a supertip with a flattened surface connected to Electrovonfrey Aesthethiometer (IITC, USA) was applied slowly and gently onto the plantar surface of the hind paw, where 4 points around the incision were identified. The endpoint is the mean withdrawal threshold values (gm) in response to von Frey filament, serving as a measure of analgesic activity. Percent inhibition was calculated as Δ treatment values (change in threshold pressure caused by treatment) relative to Δ blank values (change in threshold value caused by incision). Lofexidine.HCl was dissolved in 0.9% NaCl and at doses of 0.00032 and 0.0032 mg/rat was administered intrathecally (ITH). The dosing volume was 10 µl/rat. Male Wistar derived rats weighing 270 ± 30 g provided by BioLasco Taiwan (under Charles River Laboratories Technology licensee) were used. Space allocation for animals was 45 x 23 x 15 cm for 6 rats. Animals were housed in APEC^R cages. All animals were maintained in a controlled temperature (22-24°C) and humidity (60%-80%) environment with 12 hours light dark cycles for at least one week in MDS Pharma Services-Taiwan Laboratory prior to use. Free access to standard lab chow (Lab Diet, Rodent Diet, PMI Nutrition International, USA) and tap water was granted. All aspects of this work including housing, experimentation and disposal of animals were performed in general accordance with the Guide for the Care and Use of Laboratory Animals (National Academy Press, Washington, D. C, 1996). Groups of 5 male Wistar rats weighing 270 ± 30 g were used. Prior to surgery, individual animals were acclimatised to the testing environment and baseline responses to Electronic Von Frey Aesthesiometer (2290CE Electrovonfrey®, IITC, USA) with a rigid tip were performed (Pre-Incision). Under pentobarbital (50 mg/kg, 5 ml/kg, i.p.) anesthesia, the left hind paw was aseptically prepared. A 1-cm longitudinal incision was made with a number 11 blade, through the skin and fascia of the plantar aspect of the foot, starting 0.5 cm from the proximal edge of the heel and extending toward the toes. The plantaris muscle was elevated and incised longitudinally, followed by crushing with a mosquito hemostat for 20 seconds. The muscle origin and insertion remained intact After hemostasis with gentle pressure, the skin and fascia were then closed as one layer using 4-0 silk suture. Evaluation for pain was performed at 24 hours postoperatively between 08:00 and 16:00h. Each animal was monitored at 15, 30, 60 and 120 minutes after intrathecal administration of lofexidine.HCl. The rats were placed under inverted plexiglas cages on a wire mesh rack and a brief observation of general behavior post-injection was made. The rigid tip part of the Electronic Von Frey Aesthesiometer was applied perpendicularly from underneath the mesh floor to the four points around the wound surface of the animal with slow upward force against the paw. A positive response to tactile pressure was recorded if the paw was sharply withdrawn; ambulation was considered an ambiguous response, and in such cases, the stimulus was reapplied. Mean values from 4 points for each rat and from 5 rats in each group were calculated. Percent inhibition due to treatment relative to pre-treatment pain response was calculated according to the formula: Tactile Pressure [(Post-Treatment) - (Pre-Treatment)]/[(Pre-Incision) - (Pre-Treatment)] x 100%. Inhibition by 50% or more (≥50%) is considered significant analgesic effect. Unpaired Student's t test is applied for comparison of the % inhibition values between test substance-and vehicle-treated groups. Significance is considered at P<0.05 level

[3] = 0.00032 mg/rat ITH, individual rat
[4] = 0.00032 mg/rat ITH, group, Δ Treatment/Δ Blank x 100%
[5] = 0.00032 mg/rat ITH, group, Δ Blank 30.2
[6] = 0.0032 mg/rat ITH, individual rat
[7] = 0.0032 mg/rat ITH, group, Δ Treatment/Δ Blank x 100%, ≥50% considered significant
[8] = 0.0032 mg/rat ITH, group, Δ Blank 32.9

For `CC(Oc1c(Cl)cccc1Cl)C1=NCCN1` (stereo not drawn) [Lofexidine HCl], the “effectiveness for treatment of chronic pelvic pain” value [1] is given as “not effective”, the analgesic effect ([2]; 0.00032 mg/rat ITH) is given as “slight analgesic effect” and the “Tactile Pressure (g) Post-treatment 15min.” value ([2]; 0.00032 mg/rat ITH) is given as 26.6 g and 26.9 g and 28.6 g and 23.1 g (2×) and 21.6 g and 17.6 g and 23.3 g and 15.5 g and 18.4 g and 21.1 g and 19.3 g and 23.6 g and 20.5 g and 24.6 g and 20.1 g and 17.9 g and 19.2 g and 14.4 g and 20.6 g. The “Tactile Pressure (g) Post-treatment 30min.” value ([2]; 0.00032 mg/rat ITH) was 25.9 g and 23.6 g and 32.5 g and 18.6 g and 25.7 g and 28.4 g and 26.0 g and 20.6 g and 22.3 g and 20.4 g and 17.3 g and 24.6 g and 21.6 g and 22.5 g and 24.4 g and 24.3 g and 20.0 g and 19.4 g and 18.2 g and 19.2 g, the “Tactile Pressure (g) Post-treatment 60min.” value ([2]; 0.00032 mg/rat ITH) was 23.3 g and 27.3 g and 23.6 g and 26.6 g and 22.9 g and 19.7 g (2×) and 24.4 g and 19.2 g and 19.9 g and 20.3 g and 22.6 g and 18.4 g and 25.1 g and 21.2 g and 22.0 g and 16.2 g and 21.1 g and 20.5 g and 21.6 g and the “Tactile Pressure (g) Post-treatment 120 min.” value ([2]; 0.00032 mg/rat ITH) was 20.6 g (3×) and 21.0 g (2×) and 17.2 g and 19.9 g (2×) and 24.3 g and 21.2 g and 18.9 g and 21.6 g and 22.0 g and 18.0 g and 20.3 g and 22.4 g (2×) and 23.9 g and 18.6 g and 16.8 g. The “Tactile Pressure (g) Post-treatment 15min. Ave.” value [2, 3] was 26.3 g and 21.4 g and 18.6 g and 22.2 g and 18.0 g, the “Tactile Pressure (g) Post-treatment 30min. Ave.” value [2, 3] was 25.2 g (2×) and 21.2 g and 23.2 g and 19.2 g and the “Tactile Pressure (g) Post-treatment 60min. Ave.” value [2, 3] was 25.2 g and 21.6 g and 20.3 g and 22.0 g and 19.9 g. The “Tactile Pressure (g) Post-treatment 120 min. Ave.” value [2, 3] was 19.7 g and 21.4 g and 21.2 g (2×) and 19.4 g, the “Tactile Pressure (g) Post-treatment 15min. Mean” value ([2]; 0.00032 mg/rat ITH) was 21.3 g and the “Tactile Pressure (g) Post-treatment 30min. Mean” value ([2]; 0.00032 mg/rat ITH) was 22.8* g. For the same compound, the “Tactile Pressure (g) Post-treatment 60min. Mean” value ([2]; 0.00032 mg/rat ITH) was 21.8 g, the “Tactile Pressure (g) Post-treatment 120 min. Mean” value ([2]; 0.00032 mg/rat ITH) was 20.6 g and the “%Inh 15min.” value [2, 4] was 2.6%. For the same compound, the “%Inh 30min.” value [2, 4] was 7.6%, the “%Inh 60min.” value [2, 4] was 4.3% and the “%Inh 120 min.” value [2, 4] was 0.3%. The “Δ Treatment 15min.” value [2, 5] was 0.8 g, the “Δ Treatment 30min.” value [2, 5] was 2.3 g and the “Δ Treatment 60min.” value [2, 5] was 1.3 g. The “Δ Treatment 120 min.” value [2, 5] was 0.1 g, the “%Inh 15min.” value [2, 3] was 14.9% and 2.5% and -5.6% and 8.0% and -7.4% and the “%Inh 30min.” value [2, 3] was 11.1% and 12.8% and 4.1% and 11.4% and -3.2%. The “%Inh 60min.” value [2, 3] was 11.1% and 3.0% and 0.8% and 7.4% and -0.7%, the “%Inh 120 min.” value [2, 3] was -7.4% and 2.5% and 4.1% and 4.7% and -2.5% and the “Tactile Pressure (g) Post-treatment 15min.” value ([2]; 0.0032 mg/rat ITH) was 48.4 g and 47.2 g and 55.3 g and 30.4 g and 23.5 g and 48.7 g and 43.0 g and 36.2 g and 32.4 g and 33.8 g and 21.4 g and 31.9 g and 37.7 g and 42.5 g (2×) and 34.5 g and 30.5 g and 40.7 g and 60.0 g and 40.6 g. For the same compound, the “Tactile Pressure (g) Post-treatment 30min.” value ([2]; 0.0032 mg/rat ITH) was 36.4 g and 34.8 g and 44.1 g and 39.3 g and 34.1 g and 44.0 g and 38.1 g and 36.5 g and 36.8 g and 28.8 g and 30.3 g and 33.2 g and 34.5 g and 40.1 g and 37.2 g and 26.8 g and 27.7 g and 44.2 g and 54.3 g and 50.8 g, the “Tactile Pressure (g) Post-treatment 60min.” value ([2]; 0.0032 mg/rat ITH) was 33.6 g and 35.6 g and 35.5 g and 36.7 g and 29.0 g and 28.5 g and 40.6 g and 31.8 g and 16.1 g and 16.5 g and 21.8 g and 16.6 g and 24.3 g and 26.8 g and 21.3 g and 21.1 g and 31.3 g and 41.3 g and 32.5 g and 49.5 g and the “Tactile Pressure (g) Post-treatment 120 min.” value ([2]; 0.0032 mg/rat ITH) was 29.3 g and 21.6 g (2×) and 20.4 g and 19.2 g and 22.9 g and 22.1 g and 21.4 g and 14.5 g and 21.5 g and 17.6 g and 18.8 g and 16.2 g and 22.6 g and 24.7 g and 18.6 g and 31.1 g and 28.6 g and 27.9 g and 28.7 g. The “Tactile Pressure (g) Post-treatment 15min. Ave.” value [2, 6] was 45.3 g and 37.9 g and 29.9 g and 36.3 g and 46.0 g, the “Tactile Pressure (g) Post-treatment 30min. Ave.” value [2, 6] was 38.7 g and 38.2 g and 32.3 g and 34.7 g and 44.3 g and the “Tactile Pressure (g) Post-treatment 60min. Ave.” value [2, 6] was 35.4 g and 32.5 g and 17.8 g and 23.4 g and 38.7 g. For the same compound, the “Tactile Pressure (g) Post-treatment 120 min. Ave.” value [2, 6] was 22.6 g and 22.0 g and 18.1 g and 20.5 g and 29.1 g, the “Tactile Pressure (g) Post-treatment 15min. Mean” value ([2]; 0.0032 mg/rat ITH) was 39.1* g and the “Tactile Pressure (g) Post-treatment 30min. Mean” value ([2]; 0.0032 mg/rat ITH) was 37.6* g. For the same compound, the “Tactile Pressure (g) Post-treatment 60min. Mean” value ([2]; 0.0032 mg/rat ITH) was 29.6 g, the “Tactile Pressure (g) Post-treatment 120 min. Mean” value ([2]; 0.0032 mg/rat ITH) was 22.5 g and the “%Inh. 15 min.” value [2, 7] was “(55.9) %”. The “%Inh. 30min.” value [2, 7] was “(51.4) %”, the “%Inh. 60min.” value [2, 7] was 27.1% and the “%Inh. 120 min.” value [2, 7] was 5.5%. The “Δ Treatment 15min.” value [2, 8] was 18.4 g, the “Δ Treatment 30min.” value [2, 8] was 16.9 g and the “Δ Treatment 60min.” value [2, 8] was 8.9 g. For the same compound, the “Δ Treatment 120 min.” value [2, 8] was 1.8 g, the “%Inh 15min.” value [2, 6] was 67.7% and 46.2% and 39.2% and 41.8% and 84.2% and the “%Inh 30min.” value [2, 6] was 48.4% and 47.0% and 47.7% and 36.7% and 78.8%. The “%Inh 60min.” value [2, 6] was 38.7% and 32.5% and -3.5% and 0.9% and 60.8%, the “%Inh 120 min.” value [2, 6] was 1.2% and 5.8% and -2.5% and -8.2% and 29.9% and the “analgesic effect against post-operative pain” value ([2]; 0.0032 mg/rat intrathecal, at 15 and 30 minute time points, compared with Δ blank values) was “demonstrated analgesic effect”.
